“Also recorded” adds a separate entry of the source.
What was measured:
[1] = system: caspase 1, complement 3 (C3); test: Inflammation markers in mouse brain after 8.68 Gy, PrC-210 given 24 hours after irradiation; format: in vivo, ICR mice; conditions: 8.68 Gy whole-body, 0.3 MTD i.p. 24 hours after irradiation
Experimental: To visualize the effect of radiation on the immune response of the mouse brain, ICR mice received 8.68 Gy whole-body radiation (FIG. 10) at Time “0.” O.3MTD, i.p. PrC-210 was administered 24 hours after irradiation. […] The same applied to the inflammation marker, complement 3 (C3) (FIG. 12B). […] Most important, this suppression was a direct suppression of the immune response and was not an indirect suppression through protection of proteins and lipids against damage. Radiation-induced protein damage would have triggered an apoptotic response, as it can be seen in the second peak of caspase 3/7 in FIG. 12C. Therefore, this experiment teaches that PrC-210 is able to enter the brain and directly suppresses post-irradiation inflammation.

[2] = 1H NMR stability / thiol reactivity of PrC-210 with ammonium acetate (disulfide formation); format: physicochemical
[3] = system: C57 mice; test: EAE model, paralysis score after immunization with MOG peptide; format: in vivo, mouse
Experimental: To show, that PrC-210 suppresses neuroinflammation which is caused by an autoimmune induction of the disease, PrC-210 was applied 24 hours before immunization of C57 mice against MOG peptide (FIG. 13A), and immediately after first paralysis symptoms developed from the autoimmunization against myelin.

[4] = 1H NMR stability of PrC-210 in deuterated water under pH titration; format: physicochemical
Experimental: (§1) We established the chemical structure profile of PrC-210 using Nuclear Magnetic Resonance (NMR) spectroscopy experiments. […] This structural stability of the PrC-210 mono-thiol form in this pH range remained for at least the observed 24 hours. […] In our pH titrations between pH 9.0 and 13.0, we saw clear structural changes to PrC-210; from these progressive changes, we calculated that the pKas of the two PrC-210 amines are all substantially above the pH (pH 7.2) of physiological conditions (FIG. 3).

[5] = system: SOD1^G93A mice; test: Body weight of SOD1G93A ALS mice; format: in vivo, mouse; conditions: systemic PrC-210 0.1 MTD, IP
Excerpt: This experiment was designed to illuminate whether PrC-210 is able to stop the progression of diseases which are based on protein aggregation, such as Amyotrophic Lateral Sclerosis (ALS). […] Weight loss was progressive and was in exponential decline along with onset of ALS motor symptoms. […] As ALS pathology is based upon protein aggregation, the findings in this experiment support our inventive concept that PrC-210 is able to suppress protein misfolding and thereby suppress the pathology of these diseases. This invention applies to all neuronal, organ specific and systemic diseases which are caused by protein aggregations, such as neurodegenerative diseases, local and systemic amyloidosis, Type II diabetes, cataract of the eye, etc.

[6] = pKa of the two PrC-210 amines from NMR pH titration; format: physicochemical; conditions: pH titrations between pH 9.0 and 13.0; FIG. 3 legend: 3 pH units above physiological pH
Experimental: as §1

[7] = system: Caspase 8, Caspase 3/7; test: Apoptosis markers in mice irradiated with 8.68 Gy, PrC-210 given before irradiation; format: in vivo, mouse
Experimental: To examine PrC-210-conferred protection in an animal model, we irradiated mice with 8.68 Gy and treated them with a 0.5MTD dose of PrC-210 30 minutes before irradiation. Normally, lethal radiation with 8.68 Gy leads to massive DNA damage and activation of the intrinsic apoptotic pathway. […] This means that the radiation insult didn't trigger a significant activation of the intrinsic apoptotic pathway nor did it trigger a mitotic arrest with p53 activation. […] This apoptotic suppression and protection lasted for the entire observation time of six days, which is a sign, that PrC-210 was still present after six days. When we looked at mouse plasma in the same experiment, we saw the same 6 days apoptotic suppression as in the brain in caspase 3/7 levels (FIG. 9F).

[8] = system: DBA/1J mice; test: Paw swelling in DBA/1J mice immunized against collagen III; format: in vivo, mouse
Excerpt: To show further, that this suppression of chronic inflammation applies generally to other organs than the brain, DBA/1J mice immunized against collagen III where treated systemically and topically with PrC-210.

[9] = Consumption of PrC-210 thiol by hydrogen peroxide, with or without ammonium acetate; format: physicochemical; conditions: pH 7
Experimental: We believe that the increased reactivity of the thiol in the presence of negative charges, such as ammonium acetate, also occurs when PrC-210-thiol is in close proximity to other reactive structures, such as hydrogen peroxide. We have studied hydrogen peroxide, as it is a non-radical oxygen species with a much longer half-life than superoxide. We added hydrogen peroxide to an aqueous 5 mM solution of PrC-210 thiol at pH 7.

[10] = system: Cytochrome C; test: Cytochrome C release in mouse heart after 8.68 Gy, PrC-210 given 24 hours after irradiation; format: in vivo; conditions: PrC-210 0.3 MTD given 24 hours post-irradiation
Experimental: Different from the first peak after 12 hours, this peak is not due to DNA damage and activation of the intrinsic apoptotic pathway, as there is neither an associated p53 nor 8-oxo-dG increase at 48 hours post-irradiation (data not shown), nor an activation of the intrinsic apoptotic pathway (FIG. 11B). This peak represents a massive damage of complex IV of the respiratory chain, which is located at the inner mitochondrial membrane. […] This discovery teaches us, that PrC-210 enters mitochondria and protects the proteins and lipids of the mitochondrial membranes against insults, insults which result in the release of cytochrome C. This invention applies to all diseases which are caused by damage of the mitochondria, such as aging and all age-related diseases, neurodegenerative diseases, diseases of the cardio-vascular system, such as arteriosclerosis, damage of the heart valves or main arteries, and in general to diseases caused by damage of the mitochondria membranes, the mitochondria DNA and proteins.

[11] = Pharmacokinetics study with [14]C-labeled PrC-210, intravenous, male rats; format: in vivo; conditions: after 48 hr
Excerpt: We were also interested to see whether PrC-210-cysteine disulfide formation is transient or permanent; permanent PrC-210 hetero-disulfide formation with cellular proteins would be expected to have an impact on protein function and could translate into unwanted, toxic, side effects and should be seen as PrC-210 residues showing up as urinary or fecal metabolites. […] C labeled PrC-210, we found only minimal metabolism of PrC-210 (1.07%) after 48 hr (FIG. 7, unpublished data). It is well described that i) disulfide binding is reversible (see, e.g., Koji Aoyama, Int. J. Mol. Sci. 2021, 22 (9), 5010) and ii) that there are also two highly efficient thiol reducing systems in the cell (see, e.g., Cumming et al., The Journal of Biological Chemistry vol. 279, No. 21, Issue of May 21, pp. 21749-21758, 2004), which reduce disulfide bonds between glutathione and proteins in non-oxidative stress situations (see, e.g., Koji Aoyama, Int. J. Mol. Sci. 2021, 22 (9), 5010). Based upon both our experimental findings and the published literature, it would then be logical that PrC-210 disulfide bonds with proteins would be governed by the same chemical and enzymatic processes.

[12] = within its therapeutic window; cited from earlier work
[13] = 0.5 MTD PrC-210 before irradiation

In the case of `CNCC(CS)CNC` [PrC-210], the “inflammation marker complement 3 (C3) in mouse brain” value [1] is reported as “significantly suppressed”, the “inflammasome marker caspase 1 in mouse brain” value ([1]; starting eight days after radiation) is reported as “significantly suppressed” and the half-life ([2]; aqueous solution with ammonium acetate, ammonium acetate added to aqueous PrC-210 mono-thiol solution, pH 7.2 (FIG. 6A)) is reported as 3.1 h. For the same compound, the “stability of PrC-210 with ammonium acetate and TCEP (1H NMR)” value ([2]; deuterated water with ammonium acetate and thiol blocker TCEP, pH 7.0, 24 hours) was “remains stable”, the “structural change of PrC-210 with ammonium acetate (1H NMR)” value ([2]; deuterated water with ammonium acetate, pH 7.0, 1 hour and 24 hours) was “substantial structural changes within hours” and the “PrC-210 half-life in water” value ([2]; water, previously observed) was “days”. For the same compound, the “development and severity of paralysis symptoms” value ([3]; twice weekly intraperitoneal PrC-210 started 24 hours before immunization with MOG peptide) was “significantly suppressing”, the “development and severity of paralysis symptoms” value ([3]; twice weekly intraperitoneal PrC-210 started when first paralysis symptoms were observed) was “significantly suppressing” and the “stability at high pH after 72 hours (1H NMR)” value ([4]; deuterated water, pH 9.0, 72 hrs) was “significant change; also recorded: some instability”. The “effect of the thiol blocker TCEP on PrC-210 stability” value ([4]; water, pH 9.0, 72 hr, TCEP added, data not shown) was “doesn't influence the PrC-210 stability”, the “body weight / weight loss” value [5] was “immediate plateau in body weight loss” and the “pKas of the two amines of PrC-210” value [6] was greater than 7.2. The “Caspase 3/7 level in mouse plasma” value ([7]; 0.5 MTD PrC-210 30 min before irradiation) was “suppressed to background”, the “duration of apoptotic suppression and protection in brain” value ([7]; 0.5 MTD PrC-210, entire observation time) was “six” and the “duration of apoptotic suppression (caspase 3/7) in mouse plasma” value ([7]; 0.5 MTD PrC-210, same experiment) was 6 days. For the same compound, the “Caspase 3/7 level in mouse brain” value [7, 13] was “suppressed to background”, the “Caspase 8 level in mouse brain” value [7, 13] was “suppressed to background” and the swelling of paws ([8]; 370 mM PrC-210 applied topically, started at paw swelling score higher than 10) was “significantly reduced”. For the same compound, the swelling of paws ([8]; twice weekly intraperitoneal injection of 0.075 MTD PrC-210, started with first paw symptoms) was “significantly reduced”, the “effect of ammonium acetate on hydrogen peroxide consumption of PrC-210 thiol” value ([9]; ammonium acetate (5 mM) added seconds before hydrogen peroxide (0.5 mM), 5 mM PrC-210 thiol) was “significant enhancement; also recorded: significantly enhanced” and the “consumption of free PrC-210 thiol by hydrogen peroxide” value ([9]; aqueous 5 mM PrC-210 thiol) was “dose-dependent consumption”. The “cytochrome C release in heart muscle (second peak, 48 hours post-irradiation)” value [10] was “suppress cytochrome C release to background”, the “metabolism of PrC-210” value [11] was 1.07% and the toxic side effects [12] was “no toxic side effects”.

— patent US20260232608A1, “AMINOTHIOLS FOR THE TREATMENT OF CONDITIONS CHARACTERIZED BY PROTEIN MISFOLDING OR AGGREGATION, MITOCHONDRIAL DYSFUNCTION, OR CHRONIC INFLAMMATION” (Obvia Pharmaceuticals, Ltd., priority 2023, published 2026)
